Reference: US11840537B2, “Preparation and application of a 5-bromoquinazoline derivative” (Hefei University of Technology, priority 2020, dated 2023)
Counter-ions that a name gives are not always drawn.

Legend:
Type in all cases: cell-based
breast cancer cell MCF-7 = test: Anti-cancer activity, breast cancer cell MCF-7; settings: breast cancer cells (MCF-7)
[1] = system: hepatoma carcinoma cell SMMC-7721; test: Anti-cancer activity, hepatoma carcinoma cell SMMC-7721; settings: liver cancer (SMMC-7721)
leukemia HL-60 = test: Anti-cancer activity, leukemia HL-60 cells
colon cancer SW480 = test: Anti-cancer activity, colon cancer SW480 cells

Measured: strong inhibitory activity (ED50)

COC(=O)C1(Nc2nc(=O)[nH]c3ccc(Br)cc23)c2cc(Br)ccc2NC12C(=O)Nc1ccc(Br)cc12 (stereo not shown) [compound (I), 3-[5, 5′-dibromo-3-((6-bromo-2-oxo-1,2-dihydroquinazoline-4-amino)-2′-oxo (2,3′-spirobisindole)]methyl formate]
< 10.0 µg/mL: all assays above
